Laboratory results published in patent publication US5169758A (Boehringer Mannheim GmbH, priority 1986, dated 1992).

Test system: NAD(P)H-dependent, soluble nitrate reductase of the assimilatory type (E.C. 1.6.6.2) from mould fungus
Conditions: nitrite acts as inhibitor above this concentration

With `O=NO` [nitrite] as the compound, how does the “Inhibitor concentration (product inhibition)” value read?
The value was “more than 10^-4 M”.
